What was measured:
[1] = tested on: primary hippocampal neurons; experiment: Synaptic marker immunostaining, primary hippocampal neurons; format: cell-based, Sprague-Dawley rats; conditions: 5 μM, 24 h
Experimental: Primary neuron culture and immunostaining. Primary hippocampal neurons from E19 Sprague-Dawley rats were cultured at 150 cells/mm^2 as previously described (Pak et al., 2001). Neurons were transfected using Lipofectamine™ 2000 (Invitrogen, Carlsbad, Calif., USA) or calcium phosphate precipitation with GFP+PLL, GFP+APP shRNA, or GFP+APP and treated with BTA-EG4. The following antibodies were used: mouse anti-GFP (Novus Biologicals, 9F9.F9), rabbit anti-GFP (Invitrogen, A11122), rabbit anti-GluR1 (Calbiochem, PC246), mouse anti-GluR2 (BD Pharmagen, 556341), mouse anti-postsynaptic density (PSD)-95 (NeuroMabs, Davis, Calif., USA), mouse anti-Synaptophysin (Sigma Aldrich, s5768), rabbit APP N-terminal (Sigma-Aldrich, A8967), anti-Ras (BD Biosciences, 610001), anti-RasGRF1 (Santa Cruz, C-20; BD Biosciences, 610149), anti-ERK1/2 (Cell Signaling, 4695), anti-p-ERK1/2 (Invitrogen, 36880), anti-CREB (Cell Signaling, D76D11), anti-p-CREB (Millipore, 06-519), and mouse anti-c-Myc (Novus Biologicals, 9E10). Cultured hippocampal neuron images were acquired by LSM 510 laser scanning confocal microscope (Zeiss). Confocal zseries image stacks encompassing entire dendrite segments were analyzed using MetaMorph software (Universal Imaging Corporation, Downington, Pa., USA). […]

[2] = tested on: Aβ; experiment: Aβ ELISA, conditioned media of primary cortical neurons; format: cell-based; conditions: 1 or 5 μM, 24 h, vs control (10% DMSO)
Experimental: Aβ ELISA. Mouse brains were homogenized in tissue homogenization buffer containing 250 mM sucrose, 20 mM Tris base, protease, and phosphatase inhibitors. To measure soluble Aβ, DEA extraction was performed. Crude 10% homogenate was mixed with an equal volume of 0.4% diethylamine (DEA), sonicated, and ultracentrifuged for 1 hr at 100,000×g. The supernatant was collected and neutralized with 10% 0.5 M Tris, pH 6.8. Sensitive and specific ELISAs to rodent Aβ1-40 was purchased from IBL Transatlantic (Toronto, Canada) and conducted per the manufacturer's protocol.
To test whether BTA-EG4 alters Aβ production in vitro, primary cortical neurons were treated with BTA-EG4 (1 or 5 μM) or control (10% DMSO), and Aβ levels were measured using ELISA. […] We then examined whether BTA-EG4 can alter Aβ levels in vivo by injecting wild-type mice daily for 2 weeks with BTA-EG4 (15 or 30 mg/kg, 10% DMSO in saline, i.p.). […] Furthermore, BTA-EG4 altered APP processing in vivo, as monitored by increased sAPPα (α-secretase cleavage product) and decreased sAPPβ (β-secretase cleavage product) levels in BTA-EG4 injected wild-type mice (30 mg/kg, i.p) compared to control-injected mice (FIGS. 1E, 1F).

[3] = tested on: Ras; experiment: GST-Raf1-RBD pulldown of active Ras, APP knock-out mice; format: in vivo
Experimental: GST-pull-down assay. To measure levels of active Ras, brain lysate homogenized with Ral buffer (25 mM Tris-HCl, pH 7.4, 250 mM NaCl, 0.5% NP40, 1.25 mM MgCl2, and 5% glycerol) from APP transgenic, APP knockout, or wild-type mice was incubated with GST-Raf-RBD purified protein coupled with GLUTATHIONE SEPHAROSE™ (Amersham) overnight at 4° C. After 24 hours, pellets were washed with Ral buffer and western blotting was conducted with anti-Ras.
Next, we investigated whether BTA-EG4 can alter Ras activity in APP KO mice by injecting control or BTA-EG4 for 2 weeks. […] Further, we examined the effect of BTA-EG4 on downstream Ras signaling in the presence or absence of APP. For this experiment, primary hippocampal neurons were transfected with GFP and APP shRNA or APP, treated with BTA-EG4 or control, and then immunostained against p-ERK or p-CREB.

[4] = Capule and Yang, 2012; Inbar et al., 2006; cited from earlier work

## BTA-EG4
[1]
  number of puncta stained for PSD-95: increased
  number of puncta stained for synaptophysin: increased
[2]
  Aβ protein levels: significantly decreased
[3]; 30 mg/kg i.p., 2 weeks, CTRL (C)=100±1.22%, n=5
  amount of active Ras: 03.2±1.26%
[3]; injected for 2 weeks
  Ras activity: did not have altered
[4]
  blood-brain barrier penetration: can penetrate the blood-brain barrier
  toxicity: no toxicity
